According to patent US12622896B2, “Antiviral compounds, compositions and methods of use” (THE UNIVERSITY OF BRITISH COLUMBIA, priority 2019, dated 2026):
Values joined by “and” are separate entries in the source; they are usually repeats but may differ in a detail not shown here. Equal values may be shown once.

Experiments:
HIV-1Bal strain = experiment: PBMC infection assay, p24Gag ELISA day 11, HIV-1BaL; settings: read-out: EC50 against HIV-1Bal in PBMC; three separate donors, one value per donor; p24 day 11; listed as GPS488
Procedure: Peripheral blood mononuclear cells (PBMC) were obtained from healthy HIV-negative donors following written informed consent and maintained in R10+ supplemented with 50 U/mL human IL-2. […] PBMC were activated with 5 μg/ml PHA and infected 3 days later with viral stocks at a multiplicity of infection (MOI) of 0.01. At 6 h post-infection, cells were washed and re-suspended in R10+ medium supplemented with 50 U/ml of IL-2 in the presence of GPS molecules or FTC as a control compound for an additional 11 days. The accumulation of p24Gag was quantified in culture supernatants at day 11 using an enzyme-linked immunosorbent assay (ELISA; Xpress Bio™), and the increase in p24Gag values was used as the measure of viral replication.

[1] = system: Maraviroc-resistant variant of HIV-1BaL; experiment: Anti-HIV assay against Maraviroc-resistant R5 strain; settings: Human immunodeficiency virus 1, read-out: EC50 against Maraviroc-resistant HIV-1 strain
Procedure: (§2) The anti-HIV activity of the compounds was measured by a human T-cell reporter assay based on CEM-GXR cells. These cells express GFP due to the activation of the tat-dependent promoter upon HIV-1 infection, and the level of infection was monitored using Flow cytometric analysis (Guavasoft 2.2™ software, Guava HT8, Millipore™). Antiviral activity was evaluated in an assay that measures the inhibition of HIV-1 spread in a co-culture of CEM-GXR cells containing one percent of HIV-1 infected (GFP positive) cells.
(§3) This Maraviroc-resistant variant derived from a R5 strain of HIV-1BaL contains five mutations within the envelope V3 loop: A19T, L20F, T22A, E25D, and I26V.

PBMCs = experiment: PBMC viability by ViaCount assay over 11 days; assay type: cell-based, human; settings: up to 11 days; for cellular toxicity in PBMCs: 0.1-10 μM range
[2] = system: (N)NRTI-resistant isolate (E00443); experiment: Anti-HIV assay against (N)NRTI-resistant isolate E00443; settings: Human immunodeficiency virus 1, read-out: EC50 against isolate E00443
Procedure: as §2

[3] = system: Bcl-x transcript splicing; experiment: SR-protein induced Bcl-x splicing, X2.13 minigene in 293 cells, RT-PCR; assay type: cell-based; settings: 10 μM
[4] = system: PI-resistant isolate (2948); experiment: Anti-HIV assay against PI-resistant isolate 2948; settings: Human immunodeficiency virus 1, read-out: EC50 against PI-resistant isolate 2948
Procedure: as §2

HIV-1NL4-3 = experiment: Preliminary anti-HIV screen: CEM-GXR reporter cells co-cultured with HIV-1NL4-3 infected cells, GFP by flow cytometry; settings: for anti-HIV activity, rank within the analogue series: within the C-2 substituted thiophene or thiazole series; for anti-HIV activity in the primary library screen: CEM-GXR cells, 1.25-10 μM, percent infected cells on day 3 (FIGS. 1A, 1B)
Procedure: as §2
The reporter CEM-GXR cells were infected by co-culture with one percent HIV-1NL4-3 infected (GFP positive) cells at the start of the assay (day 0). Individual compounds from the library was added in DMSO at varying concentrations to the culture in each microplate well immediately after the inoculation by infected cells. The final library compound concentration ranged from 1.25-10 μM and the final DMSO concentration was less than 0.1%. The percent of infected cells in the culture was determined by flow cytometry on day 3 using GFP expression as a readout.

[5] = system: HIV-1IIIB (subtype B, X4-tropic); experiment: Anti-HIV viral spread assay in CEM-GXR cells, wild-type subtype B; assay type: cell-based; settings: Human immunodeficiency virus 1; CEM-GXR cells, viral spread, nonlinear regression; read-out: EC50 (WT Subtype B)
Excerpt: (§1) To validate these EC50 values, the anti-HIV drug, emtricitabine (FTC) was included in the anti-HIV assay as a positive control.

[6] = system: clinical isolate (11845 INI); experiment: Anti-HIV assay against INI-resistant clinical isolate 11845; settings: Human immunodeficiency virus 1, read-out: EC50 against 11845 clinical isolate
Procedure: as §2, §3

[7] = system: HIV-1 97USSN54 (subtype A, R5-tropic); experiment: Anti-HIV viral spread assay in CEM-GXR cells, wild-type subtype A; assay type: cell-based; settings: Human immunodeficiency virus 1, nonlinear regression, read-out: EC50 (WT Subtype A)
Excerpt: as §1

CEM-GXR cells = experiment: Guava ViaCount cytotoxicity on CEM-GXR cells; assay type: cell-based, human; settings: for toxicity in the preliminary screen: at 5 μM, data not shown; for toxicity of thiophene analogues: C-2 CF3 thiophene analogues
Procedure: The ViaCount™ assay was performed with the Guava easyCyte 8HT™ flow cytometer according to the manufacturer's manual (Guava Technologies™, Inc., Hayward, CA, USA). In brief, CEM-GXR cells were seeded in 96-well plates 80000 cells/well in the absence or presence of compound in various concentrations. Twenty-four hours later, 25 μL of cell suspension was mixed with 225 μL of Guava ViaCount™ reagent, and the mixture was incubated for 5 min at room temperature. Sample acquisition and data analysis were performed with the selection of EasyFit™ analysis feature using the ViaCount™ software module.
The potential cytotoxic effect of the molecules on CEM-GXR cells viability was determined by the Guava ViaCount assay. This assay differentially stains viable and nonviable cells based on their permeability to the DNA-binding dyes and uses the forward scatter (FSC) properties to distinguish free nuclei and cellular debris from intact cells to quantify cell count. CEM-GXR cells were incubated with compound at concentrations ranging between 0.5 and 100 μM for 24 h.

HIV = settings: literature; cited from earlier work

O=C(Nc1nc2c(Cl)cccc2s1)c1cnc(C(F)(F)F)s1 [12a, N-(4-chlorobenzo[d]thiazol-2-yl)-2-(trifluoromethyl)thiazole-5-carboxamide]
EC50 (HIV-1Bal strain): 335 nM and 44 nM and 200 nM | EC50 [1]: 969 nM | cellular toxicity in PBMCs at 1 μM (PBMCs): minimal toxicity | cellular toxicity in PBMCs (PBMCs): some cellular toxicity | EC50 [2]: 1160 nM | generation of Bcl-xL splicing variant with SRSF1 or SRSF9 [3]: did not have any impact | abundance of Bcl-xS splice variant with SRSF2 ([3]; 24 hour): increased abundance | abundance of Bcl-xS splice variant with SRSF7 ([3]; 24 hour): decreased abundance | EC50 [4]: 1170 nM | anti-HIV activity, rank within the analogue series (HIV-1NL4-3): most active | EC50 [5]: 1290 nM | EC50 [6]: 951 nM | EC50 [7]: 955 nM

O=C(Nc1nc2c(Cl)cc(Cl)cc2s1)c1ccc([N+](=O)[O-])s1 [5e, N-(4,6-Dichlorobenzo[d]thiazol-2-yl)-5-nitrothiophene-2-carboxamide]
toxicity in the preliminary screen (CEM-GXR cells): toxicity | anti-HIV activity in the primary library screen (HIV-1NL4-3): significant activity

O=C(Nc1nc2ccc(C(F)(F)F)cc2s1)c1ccc(C(F)(F)F)s1 [8c, 5-(trifluoromethyl)-N-(6-(trifluoromethyl)benzo[d]thiazol-2-yl)thiophene-2-carboxamide]
toxicity of thiophene analogues (CEM-GXR cells): toxicity at low micromolar concentrations | anti-HIV activity, rank within the analogue series (HIV-1NL4-3): most active

CCOC(=O)c1ccc2nc(NC(=O)c3ccc([N+](=O)[O-])s3)sc2c1 [5i, Ethyl 2-(5-nitrothiophene-2-carboxamido)benzo[d]thiazole-6-carboxylate]
anti-HIV activity in the primary library screen (HIV-1NL4-3): moderate to weak

O=C(Nc1nc2ccccc2s1)c1ccc([N+](=O)[O-])s1 [5g, N-(Benzo[d]thiazol-2-yl)-5-nitrothiophene-2-carboxamide]
anti-HIV activity in the primary library screen (HIV-1NL4-3): moderate to weak

O=C(Nc1nc2c(Cl)cccc2s1)c1ccc([N+](=O)[O-])s1 [5a, N-(4-Chlorobenzo[d]thiazol-2-yl)-5-nitrothiophene-2-carboxamide]
anti-HIV activity in the primary library screen (HIV-1NL4-3): significant activity

O=C(Nc1nc2ccc(F)cc2s1)c1ccc([N+](=O)[O-])s1 [5j, N-(6-Fluorobenzo[d]thiazol-2-yl)-5-nitrothiophene-2-carboxamide]
anti-HIV activity in the primary library screen (HIV-1NL4-3): moderate to weak

O=C(Nc1nc2ccc(OC(F)(F)F)cc2s1)c1ccc([N+](=O)[O-])s1 [5b, 5-Nitro-N-(6-(trifluoromethoxy)benzo[d]thiazol-2-yl)thiophene-2-carboxamide]
toxicity in the preliminary screen (CEM-GXR cells): toxicity | anti-HIV activity in the primary library screen (HIV-1NL4-3): significant activity

O=C(Nc1nc2ccc(Br)cc2s1)c1ccc([N+](=O)[O-])s1 [5k, N-(6-Bromobenzo[d]thiazol-2-yl)-5-nitrothiophene-2-carboxamide]
anti-HIV activity in the primary library screen (HIV-1NL4-3): moderate to weak

O=C(Nc1nc2ccc(Cl)cc2s1)c1ccc([N+](=O)[O-])s1 [5d, N-(6-Chlorobenzo[d]thiazol-2-yl)-5-nitrothiophene-2-carboxamide]
anti-HIV activity in the primary library screen (HIV-1NL4-3): significant activity

Nc1nc(=O)n([C@@H]2CS[C@H](CO)O2)cc1F [FTC, emtricitabine, reference compound]
EC50 [5]: 33.7 nM | EC50 [7]: 26.3 nM

O=C(Nc1nc2ccc(C(F)(F)F)cc2s1)c1ccc([N+](=O)[O-])s1 [5h, 5-Nitro-N-(6-(trifluoromethyl)benzo[d]thiazol-2-yl)thiophene-2-carboxamide]
anti-HIV activity in the primary library screen (HIV-1NL4-3): significant activity

O=C(Nc1nc2c(Cl)cccc2s1)c1ccc(C(F)(F)F)s1 [8a, N-(4-Chlorobenzo[d]thiazol-2-yl)-5-(trifluoromethyl)thiophene-2-carboxamide]
anti-HIV activity, rank within the analogue series (HIV-1NL4-3): most active

O=C(Nc1nc2cc(Br)ccc2s1)c1ccc([N+](=O)[O-])s1 [5f, N-(5-Bromobenzo[d]thiazol-2-yl)-5-nitrothiophene-2-carboxamide]
toxicity in the preliminary screen (CEM-GXR cells): toxicity | anti-HIV activity in the primary library screen (HIV-1NL4-3): significant activity

O=[N+]([O-])c1ccc(C=Cc2ccc3ccccc3n2)s1 [compound 5350150, 2-(2-(5-nitro-2-thienyl)vinyl)quinolone]
HIV replication (HIV): blocked HIV replication

O=C(Nc1nc2ccc([N+](=O)[O-])cc2s1)c1ccc([N+](=O)[O-])s1 [5c, 5-Nitro-N-(6-nitrobenzo[d]thiazol-2-yl)thiophene-2-carboxamide]
anti-HIV activity in the primary library screen (HIV-1NL4-3): significant activity

O=C(Nc1nc2ccc([N+](=O)[O-])cc2s1)c1cnc(C(F)(F)F)s1 [12b, N-(6-nitrobenzo[d]thiazol-2-yl)-2-(trifluoromethyl)thiazole-5-carboxamide]
anti-HIV activity, rank within the analogue series (HIV-1NL4-3): most active

O=C(Nc1nc2ccc([N+](=O)[O-])cc2s1)c1ccc(C(F)(F)F)s1 [8b, N-(6-nitrobenzo[d]thiazol-2-yl)-5-(trifluoromethyl)thiophene-2-carboxamide]
toxicity of thiophene analogues (CEM-GXR cells): toxicity at low micromolar concentrations | anti-HIV activity, rank within the analogue series (HIV-1NL4-3): most active

[N-]=[N+]=Nc1ccc2nc(NC(=O)c3cnc(C(F)(F)F)s3)sc2c1 [12e, N-(6-azidobenzo[d]thiazol-2-yl)-2-(trifluoromethyl)thiazole-5-carboxamide]
cellular toxicity in PBMCs at 1 μM (PBMCs): minimal toxicity | cellular toxicity in PBMCs (PBMCs): minimal toxicity | anti-HIV activity, rank within the analogue series (HIV-1NL4-3): most active
